Test in all cases: NCI anticancer screen, dose series, 48 h
Experiment [1] has as its system BT-549.
In experiment [2] the test system is SK-MEL-2.
The test system of experiment [3] is SF-295.
Experiment [4] deals with SK-MEL-28.
Experiment [5] concerns SK-MEL-5.
Experiment [6] has as its system UACC-257.
For experiment [7], the system named is EKVX.
The test system of experiment [8] is RPMI-8226.
Experiment [9] concerns SNB-75.
In experiment [10] the test system is NCI/ADR-RES.
For experiment [11], the system named is CCRF-CEM.
The test system of experiment [12] is HOP-62.
The subject of experiment [13] is PC-3.
Experiment [14] deals with MOLT-4.
In experiment [15] the test system is K562.
In experiment [16] the test system is NCI-H226.
Experiment [17] relates to RXF 393.
In experiment [18] the test system is CAKI-1.
Experiment [19] concerns HL-60.

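Results reflect a 48-hour exposure of cells in 96-well plates to compound at five concentrations. GI50 is the concentration that inhibits growth by half.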 Calls of active or inactive are those of the source. Cut-off read from the data, not from the text of the source: active = GI50 up to about 1.1 µM and inactive = higher.

On to `O=C1C2=Cc3ccccc3OC2(O)Oc2cc3ccccc3cc21` (stereo unspecified), for which the GI50 in [1] is 15.1 µM (inactive); in experiment [2] it was > 100 µM (inactive); in experiment [3] it was 94.8 µM (inactive); in experiment [4], > 100 µM (inactive); in experiment [5], > 100 µM (inactive); in experiment [6], > 100 µM (inactive). Also, the GI50 is > 100 µM (inactive) in [7]; > 100 µM (inactive) in [8]; 25.9 µM (inactive) in [9]; > 100 µM (inactive) in experiment [10]; > 100 µM (inactive) in [11]; > 100 µM (inactive) in experiment [12]. Besides, the GI50 in experiment [13] was > 100 µM (inactive); in [14] it was > 100 µM (inactive); in [15] it was > 100 µM (inactive); in [16] it was 56.1 µM (inactive); in experiment [17] it was 58.1 µM (inactive); in experiment [18], > 100 µM (inactive).

As for `CCOC(=O)C(=O)N/N=C1\C(=O)Nc2ccccc21`, the GI50 in experiment [1], in experiment [2], in experiment [3], in [4], in experiment [5] and in experiment [6] was > 100 µM (inactive) throughout. Moreover, the GI50 in [7], in [8], in experiment [9], in experiment [10], in [11] and in [12] was > 100 µM (inactive) in each case. For the same compound, the GI50 in experiment [13], in experiment [14], in experiment [15], in experiment [16], in experiment [17] and in experiment [18] was > 100 µM (inactive) each time.

Turning to `Cc1nc2cc3ccccc3cc2[nH]c1=O`, the GI50 in experiment [1] is > 100 µM (inactive); in [2] it was > 100 µM (inactive); in experiment [3], 91.2 µM (inactive); in [4], > 100 µM (inactive); in [19], > 100 µM (inactive); in experiment [5], 96.2 µM (inactive). For the same compound, the GI50 in [6] was > 100 µM (inactive); in experiment [7], 0.805 µM (active); in [9], 24.5 µM (inactive); in experiment [10], 77.3 µM (inactive); in [11], 51.2 µM (inactive); in [12], 71.6 µM (inactive). For the same compound, the GI50 in [13] was > 100 µM (inactive); in [14], 44 µM (inactive); in [15], 38.8 µM (inactive); in [16] it was 53.2 µM (inactive); in experiment [17], 47.5 µM (inactive); in experiment [18] it was 38.1 µM (inactive).

With `COc1cc(S(=O)(=O)Nc2nc(-c3ccc(N4C(=O)/C(=C/c5ccccc5[N+](=O)[O-])N=C4c4ccccc4)cc3)cs2)ccc1Cl`, the GI50 in [1] is 20 µM (inactive); in experiment [2], 33.3 µM (inactive); in experiment [3], > 100 µM (inactive); in experiment [4], > 100 µM (inactive); in [19] it was 44.3 µM (inactive); in experiment [5] it was 48.9 µM (inactive). Besides, the GI50 was > 100 µM (inactive) in experiment [6]; > 100 µM (inactive) in experiment [9]; > 100 µM (inactive) in [10]; > 100 µM (inactive) in experiment [11]; 87.1 µM (inactive) in experiment [12]; 47 µM (inactive) in [13]. Besides, the GI50 in [14] was 37.7 µM (inactive); in experiment [15], 61.5 µM (inactive); in [16], > 100 µM (inactive); in [17], 63.5 µM (inactive); in experiment [18] it was > 100 µM (inactive).
